Results: patent US11666640B2, “Glucose oxidase compositions as a neonate anticonvulsant” (PENN STATE RESEARCH FOUNDATION, priority 2018, dated 2023)
“Also recorded” adds a separate entry of the source.

Tests used:
Cl− channels = assay: Cl− current recording in cultured cortical neurons; format: cell-based, mouse; conditions: 10 mM NaGcA
[1] = test system: KA induced neonatal seizure; assay: KA-induced neonatal seizure, in vivo EEG recording; parameters: species or system rat
Protocol: For example, neonatal rats were administered gluconate to determine the effect on in vivo epileptic seizures in neonatal and adult animals. […] FIGS. 14A and 14B; Dzhala et al., “NKCC1 transporter facilitates seizures in the developing brain” Nature Medicine 11:1205-1213 (2005). […] FIGS. 14C and 14D.
(§1) To test the in vivo anti-epilepsy effects of gluconate in neonatal and adult rodents, P8-12 Sprague-Dawley rats or 2-month old male C57BL/6 mice were deeply anesthetized with pentobarbital sodium (50 mg/kg for neonatal rat and 100 mg/kg for adult mice, intraperitoneal injection). Two stainless steel screws (1 mm in diameter) were inserted in the skull above the cortex as EEG recording electrodes, one ground electrode as well as one reference electrode were located +1.8 mm anterior to bregma, ±0.5 mm lateral to the midline, and 1 mm below the cortical surface. All electrodes were attached to a micro-connector and fixed onto the skull with dental cement. After surgery, neonatal rats were returned to their mothers and allowed to recover for 2 days prior to subsequent EEG recording. The adult mice were single housed in order to prevent damage of the implanted electrodes and allowed to recover at least 5 days before EEG recording.
The baseline of EEG was recorded for 0.5-1 hr to allow the animal to adapt to the environment. Kainic acid (2 mg/kg) was administered intraperitoneally (i.p.) for neonatal epilepsy induction. D-gluconic acid sodium salt (2 g/kg) or 0.9% saline was injected i.p. 10 min after KA administration. Pentylenetetrazol (PTZ) was administered intraperitoneally for inducing a stable epileptic burst activity in adult mice, and D-gluconic acid sodium salt (1 g/kg and 2 g/kg) or 0.9% saline was injected i.p. 10 min before PTZ administration. Epileptiform activity was monitored for 1 hr after PTZ injection. Qian et al., “Epileptiform response of CA1 neurones to convulsant stimulation by cyclothiazide, kainic acid and pentylenetetrazol in anaesthetized rats” Seizure 20:312-319 (2011). After the experiment, animals were injected with diazepam to protect the animals from recurrent epilepsy.
Power was calculated in 1-min time windows by integrating the power of dominant frequency bands from 1 to 100 Hz (EEG band).

[2] = test system: sodium, potassium or calcium channels; assay: Na+, K+ and Ca2+ currents in cultured cortical neurons; format: cell-based, mouse; conditions: 10 mM NaGcA; sodium salt
Description: Experiments were designed to answer the question as to what is/are the molecular target(s) of gluconate. Ion channel regulation was first investigated where a comparison of NaGcA on sodium, potassium or calcium channels was made. […] See, FIGS. 2A-2F. Although it is not necessary to understand the mechanism of an invention, it is believed that since gluconic acid is an organic anion, it might affect neuronal anion channels.

CLC-3 Cl− channels = target: T1, CLC-3 Cl− channels (Mus musculus, UniProt P51791); assay: Voltage-dependent outward rectifying Cl− currents in CA3 pyramidal neurons of hippocampal slices; format: cell-based
T1 construct: CA3 pyramidal neurons of hippocampal slices from neonatal mice; from tissue; host or cells: acute hippocampal slices (CA3 pyramidal neurons), C57BL/6 mice
T1 sequence (P51791 1-818): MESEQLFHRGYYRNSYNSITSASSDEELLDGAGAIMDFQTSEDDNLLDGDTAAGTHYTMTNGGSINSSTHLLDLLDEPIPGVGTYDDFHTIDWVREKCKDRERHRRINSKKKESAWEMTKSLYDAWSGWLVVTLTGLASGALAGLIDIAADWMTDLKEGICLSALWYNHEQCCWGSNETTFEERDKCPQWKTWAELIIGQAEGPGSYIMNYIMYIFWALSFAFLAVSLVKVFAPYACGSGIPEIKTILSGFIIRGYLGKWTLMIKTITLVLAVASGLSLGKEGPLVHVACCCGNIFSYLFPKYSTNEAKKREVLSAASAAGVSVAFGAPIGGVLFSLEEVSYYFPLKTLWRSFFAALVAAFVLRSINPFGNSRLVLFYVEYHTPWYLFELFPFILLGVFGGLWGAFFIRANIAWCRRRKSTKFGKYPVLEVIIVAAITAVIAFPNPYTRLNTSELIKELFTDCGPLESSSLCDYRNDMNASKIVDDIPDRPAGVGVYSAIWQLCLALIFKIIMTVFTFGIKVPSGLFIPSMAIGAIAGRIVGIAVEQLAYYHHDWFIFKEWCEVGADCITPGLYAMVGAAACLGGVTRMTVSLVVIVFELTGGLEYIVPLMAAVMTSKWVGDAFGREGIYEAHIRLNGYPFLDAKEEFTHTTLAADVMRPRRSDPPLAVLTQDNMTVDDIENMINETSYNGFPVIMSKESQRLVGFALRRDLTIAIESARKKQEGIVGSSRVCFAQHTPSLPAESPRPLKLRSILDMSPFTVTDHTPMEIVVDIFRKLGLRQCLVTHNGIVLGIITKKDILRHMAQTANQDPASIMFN

[3] = test system: PTZ-induced epileptic seizures; assay: PTZ-induced epileptiform activity in adult mice, EEG recording; format: in vivo, mouse; conditions: PTZ 50 mg/kg i.p.
Protocol: as §1
The baseline of EEG was recorded for 0.5-1 hr to allow the animal to adapt to the environment. Kainic acid (2 mg/kg) was administered intraperitoneally (i.p.) for neonatal epilepsy induction. D-gluconic acid sodium salt (2 g/kg) or 0.9% saline was injected i.p. 10 min after KA administration. […] Epileptiform activity was monitored for 1 hr after PTZ injection. […]
Adult EEG signal were analyzed by spike 2 software (an analysis program for CED 1401, Cambridge, UK). […]

[4] = test system: KA induced neonatal seizure; assay: KA-induced neonatal seizure, in vivo EEG recording; conditions: NaGcA 2 g/kg i.p. about 1 hr after KA, P10-12 rat; sodium salt

For O=C([O-])[C@H](O)[C@@H](O)[C@H](O)[C@H](O)CO.[Na+] [NaGcA, D-gluconic acid sodium salt], the “Cl− currents” value (Cl− channels; recorded at +90 mV) was 499±89 pA, the “Cl− currents (inhibition)” value (Cl− channels; sodium salt) was “significantly decreased; also recorded: significant NaGcA inhibition” and the “epileptic seizure (burst) activity in EEG” value ([1]; P10-12, KA 2 mg/kg i.p., drug i.p. 10 min after KA: NaGcA 2 g/kg, phenobarbital 25 mg/kg, bumetanide 2 mg/kg, sodium salt) was “significantly inhibited; also recorded: potently inhibited; also recorded: essentially abolished; also recorded: no robust burst discharges”. The “average power of epileptic activity induced by KA, lowering” value ([1]; P10-12, NaGcA 2 g/kg i.p. vs saline, 1 min time window) was 70%, the “reduction of relative EEG power” value ([1]; last 30 min of a 2-hr recording period after KA injection, neonatal) was 72.3% and the “Na+, K+ and Ca2+ currents” value [2] was “no significant changes; also recorded: no effect”. For the same molecule, the “Cl− currents after 0 Mg2+ treatment (inhibition)” value (CLC-3 Cl− channels; 0 Mg2+ aCSF 1 hr, 20 mM NaGcA, sodium salt) was “remarkable inhibition; also recorded: significantly inhibited; also recorded: significantly blocked; also recorded: remarkably inhibited”, the “Cl− current density after 0 Mg2+ treatment” value (CLC-3 Cl− channels; 0 Mg2+ aCSF 1 hr, recorded in 20 mM NaGcA, +90 mV) was 7.3±0.6 pA/pF and the “Cl− currents in neonatal CA3 pyramidal neurons” value (CLC-3 Cl− channels; 20 mM NaGcA, neonatal, sodium salt) was “dramatically reduced; also recorded: potent inhibitor; also recorded: remarkably inhibited”. The “Cl− currents in CLC-3 KO mice” value (CLC-3 Cl− channels; CLC-3 KO mice, NaGcA, sodium salt) was “little inhibition; also recorded: no effect”, the “Cl− current inhibition by gluconic acid with various counter ions” value (CLC-3 Cl− channels; P8-12 neonatal mice, 20 mM NaGcA, 10 mM Mg(GcA)2, 20 mM gluconic acid) was “equivalent Cl− current inhibition” and the “Cl− currents in adult brains” value (CLC-3 Cl− channels; adult (P60-62), 20 mM NaGcA) was “no effect”. For the same molecule, the “epileptic burst activity induced by PTZ” value [3] was “did not suppress the epileptic burst activity as effective”, the “latency of epileptiform spikes or bursts induced by PTZ” value ([3]; NaGcA 1 and 2 g/kg, sodium salt) was “prolonging the latency; also recorded: prolonged” and the “stable epileptic activity induced by KA (acute effect)” value [4] was “gradually reduced; also recorded: significantly reduced; also recorded: still suppressed seizure activity”.
